Source: patent US20250170136A1, “1,2,4-TRIAZIN-3(2H)-ONE COMPOUNDS FOR THE TREATMENT OF HYPERPROLIFERATIVE DISEASES” (BAYER AKTIENGESELLSCHAFT, priority 2019, published 2025)

Columns and labels:
human full length PDE3A = human full length PDE3A (Homo sapiens (Human), UniProt Q14432); assay: PDE3A enzyme inhibition (3H-cAMP Scintillation Proximity Assay); assay type: biochemical; conditions: Sf9 cell extract, 60 min room temperature
Method: The commercially available 3H-cAMP Scintillation Proximity Assay (SPA, Perkin Elmer) system was used for enzyme inhibition studies. For the determination of the in vitro effect of example compounds on the PDE3A reactions 2 μl of the respective example compound solution in DMSO (serial dilutions) were placed in wells of microtiter plates (Isoplate-96/200W; Perkin Elmer). 50 μl of a dilution of PDE3A cell extract from Sf9 cells overexpressing human full length PDE3A (SB Drug Discovery, UK) in buffer A (50 mM Tris/HCl pH 7.5, 8.3 mM MgCl2, 1.7 mM EDTA, 0.2% BSA) was added. The dilution of the PDE3A cell extract was chosen such that the reaction kinetics was linear and less than 70% of the substrate was consumed (typical dilution 1:5000). The reaction was started by addition of 50 μl (0.025 μCi) of 1:2000 in buffer A w/o BSA diluted substrate [8-3H]adenosine 3′, 5′-cyclic phosphate (1 μCi/μl; Perkin Elmer). After incubation at room temperature for 60 min, the reaction was stopped by addition of 25 μl of a suspension containing 18 mg/ml yttrium scintillation proximity beads (Perkin Elmer) in water. The microtiter plates were sealed and measured in a Microbeta scintillation counter (PerkinElmer Wallac). IC50 values were determined from sigmoidal curves by plotting percentage PDE3A activity vs log compound concentration.

T98G cells = assay: Cell proliferation measurement (CellTiter-Glo, 72 h); assay type: cell-based; conditions: Homo sapiens, anti-proliferation, Brain (Glioblastoma)
Method: (§1) The antiproliferative activity of the compounds of the general formula (I) was examined in vitro in human cancer cells. […] After 24 h, cells on one plate (0 h plate) were treated with 30 μl/cavity of CTG solution (Promega Cell Titer Glo (catalogue #G755B and G756B)) and incubated at room temperature for 10 min, and luminescence was measured by means of a VICTOR V (Perkin Elmer), in order to determine cell viability on commencement of treatment. The cells on the test plate were treated with the compounds of the general formula (I) as and incubated at 37° C. for 72 h. The compounds were added to the cells by means of an HP D300 digital dispenser in a 10-step 2,5-fold dilution series generally starting at a maximum final drug concentration of 100 nM, or 30 μM in the case of COV318. As control, the cells were treated with vehicle (DMSO at 0.3% final concentration). After 72 h, the cells were treated with 30 μl/cavity of CTG solution (Promega Cell Titer Glo (catalogue #G755B and G756B)) and incubated at room temperature for 10 min, and luminescence was measured by means of a VICTOR V (Perkin Elmer), in order to determine cell viability at the end of treatment. The percentage effect on cell growth and the IC50 derived therefrom were determined for each test substance using the values from the 0 h plate (=maximum inhibition) and the DMSO control (=minimum inhibition). The IC50 values were calculated using a 4-parameter fit.

IGR37 cells = assay: as above; assay type: cell-based; conditions: Homo sapiens, IGR-37, anti-proliferation, IGR37, Melanoma
Method: as §1

H4 cells = assay: as above; assay type: cell-based; conditions: Homo sapiens, anti-proliferation, H4, Brain (Astrocytoma)
Method: as §1

COV318 cells = assay: as above; assay type: cell-based; conditions: Homo sapiens, anti-proliferation, COV318, Ovarian cancer, maximum concentration 30 μM
Method: as §1

SW1783 cells = assay: as above; assay type: cell-based; conditions: Homo sapiens, anti-proliferation, SW1783, Brain (Anaplastic astrocytoma)
Method: as §1

M059J cells = assay: as above; assay type: cell-based; conditions: Homo sapiens, anti-proliferation, Brain (Glioblastoma)
Method: as §1

HeLa cells = assay: as above; assay type: cell-based; conditions: Homo sapiens, anti-proliferation
Method: as §1

U118-MG cells = assay: as above; assay type: cell-based; conditions: Homo sapiens, U-118-MG, anti-proliferation, Brain (Glioblastoma: Astrocytoma)
Method: as §1

92.1 cells = assay: as above; assay type: cell-based; conditions: Homo sapiens, anti-proliferation, 92.1, Uveal melanoma
Method: as §1

LN229 cells = assay: as above; assay type: cell-based; conditions: Homo sapiens, LN-229, anti-proliferation, LN229, Brain (Glioblastoma)
Method: as §1

U-251MG cells = assay: as above; assay type: cell-based; conditions: Homo sapiens, anti-proliferation, Brain (Glioblastoma: Astrocytoma)
Method: as §1

GB1 cells = assay: as above; assay type: cell-based; conditions: Homo sapiens, GB-1, anti-proliferation, GB1, Brain (Glioblastoma)
Method: as §1

42-MG-BA cells = assay: as above; assay type: cell-based; conditions: Homo sapiens, anti-proliferation, Brain (Glioblastoma)
Method: as §1

Mel202 cells = assay: as above; assay type: cell-based; conditions: Homo sapiens, anti-proliferation, Mel202, Uveal melanoma
Method: as §1

YKG1 cells = assay: as above; assay type: cell-based; conditions: Homo sapiens, YKG-1, anti-proliferation, YKG1, Brain (Glioblastoma)
Method: as §1

SK-MEL-3 cells = assay: as above; assay type: cell-based; conditions: Homo sapiens, SK-MEL3; anti-proliferation, SK-MEL-3, 72 h
Method: as §1

DKMG cells = assay: as above; assay type: cell-based; conditions: Homo sapiens, anti-proliferation, Brain (Glioblastoma)
Method: as §1

DBTRG05MG cells = assay: as above; assay type: cell-based; conditions: Homo sapiens, DBTRG-05MG, anti-proliferation, Brain (Glioblastoma)
Method: as §1

PFSK cells = assay: as above; assay type: cell-based; conditions: Homo sapiens, anti-proliferation, Brain (Primitive neuroectodermal tumor)
Method: as §1

GAMG cells = assay: as above; assay type: cell-based; conditions: Homo sapiens, anti-proliferation, Brain (Glioblastoma)
Method: as §1

human full length PDE3A, sequence (Q14432 whole entry): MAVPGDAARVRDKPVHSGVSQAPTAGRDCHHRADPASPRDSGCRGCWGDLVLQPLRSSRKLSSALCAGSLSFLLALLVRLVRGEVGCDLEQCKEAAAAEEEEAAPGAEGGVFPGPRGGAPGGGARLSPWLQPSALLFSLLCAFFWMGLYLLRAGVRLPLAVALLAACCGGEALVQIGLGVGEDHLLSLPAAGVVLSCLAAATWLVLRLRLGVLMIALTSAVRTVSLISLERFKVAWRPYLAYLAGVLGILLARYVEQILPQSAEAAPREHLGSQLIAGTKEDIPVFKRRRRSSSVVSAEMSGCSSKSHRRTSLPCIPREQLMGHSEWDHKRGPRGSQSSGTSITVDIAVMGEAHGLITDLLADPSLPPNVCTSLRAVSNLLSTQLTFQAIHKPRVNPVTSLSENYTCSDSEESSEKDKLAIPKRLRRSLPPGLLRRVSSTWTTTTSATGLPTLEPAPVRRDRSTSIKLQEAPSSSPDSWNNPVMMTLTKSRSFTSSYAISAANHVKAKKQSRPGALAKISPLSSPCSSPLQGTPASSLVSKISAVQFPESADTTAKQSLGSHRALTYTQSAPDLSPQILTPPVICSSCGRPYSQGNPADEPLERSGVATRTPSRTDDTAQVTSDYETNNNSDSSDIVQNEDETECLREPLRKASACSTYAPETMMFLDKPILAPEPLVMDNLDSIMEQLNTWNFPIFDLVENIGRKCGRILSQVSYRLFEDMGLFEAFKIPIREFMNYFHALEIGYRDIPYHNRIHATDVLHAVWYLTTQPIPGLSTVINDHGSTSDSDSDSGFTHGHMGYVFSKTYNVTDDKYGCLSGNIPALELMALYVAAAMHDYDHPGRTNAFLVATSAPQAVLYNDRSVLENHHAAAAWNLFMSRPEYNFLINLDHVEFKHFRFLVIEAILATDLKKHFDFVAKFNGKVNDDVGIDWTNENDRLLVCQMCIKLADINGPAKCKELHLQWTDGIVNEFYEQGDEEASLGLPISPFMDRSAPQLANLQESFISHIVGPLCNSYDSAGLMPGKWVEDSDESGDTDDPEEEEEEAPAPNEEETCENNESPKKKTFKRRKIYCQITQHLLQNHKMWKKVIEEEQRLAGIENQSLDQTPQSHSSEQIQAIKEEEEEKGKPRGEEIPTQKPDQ

## C[C@@H]1NC(=O)NN=C1c1ccc(-n2ccc(C(F)(F)F)n2)c(C(F)(F)F)c1 [Example 1, (5S)-5-methyl-6-{3-(trifluoromethyl)-4-[3-(trifluoromethyl)-1H-pyrazol-1-yl]phenyl}-4,5-dihydro-1,2,4-triazin-3(2H)-one]
Human full length PDE3A
  IC50: 91 nM
T98G cells
  IC50: > 100 nM
IGR37 cells
  IC50: 4.01 nM
H4 cells
  IC50: 47.7 nM
COV318 cells
  IC50: 8930 nM
SW1783 cells
  IC50: > 100 nM
M059J cells
  IC50: 40.5 nM
HeLa cells
  IC50: 1.5 nM
U118-MG cells
  IC50: > 100 nM
92.1 cells
  IC50: 19.4 nM
LN229 cells
  IC50: > 100 nM
U-251MG cells
  IC50: > 100 nM
GB1 cells
  IC50: 8.96 nM
42-MG-BA cells
  IC50: > 100 nM
Mel202 cells
  IC50: 74.2 nM
YKG1 cells
  IC50: > 100 nM
SK-MEL-3 cells
  IC50: 4 nM
DKMG cells
  IC50: 16.6 nM
DBTRG05MG cells
  IC50: 30.5 nM
PFSK cells
  IC50: 2.95 nM
GAMG cells
  IC50: > 100 nM
